Series [1] deals with cultured hippocampal neurons. The series can be described thus: neurotoxicity of combined exposure to Aβ and glutamate. The class given is cell-based, rat. The settings on record: 50 μM Aβ plus 20 μM glutamate, 48 h; compared with either insult alone. The text has this:
Dissociated embryonic rat hippocampal cell cultures were established and maintained. All procedures conformed with the NIH Guide for the Care and Use of Laboratory Animals and were approved by the University of Kentucky Animal Care and Use Committee. Cultures were maintained on a polyethyleneimine-coated substrate in plastic 35-mm dishes or 96 wall plates (for cell survival studies) or glass-bottom 35-mm dishes (for [Ca^2+ ]i imaging studies). The cell density was ^~ 70-100 cells/mm^2. Cells were maintained in Eagle's minimum essential medium supplemented 10% with fetal bovine serum and containing 20 mM sodium pyruvate. […]
Neuronal survival was quantified by counting viable neurons in the same microscope fields (10x objective) immediately before experimental treatment and at time points after treatment. In addition, cells were grown in 96-well plates and Alamar blue fluorescence (Alamar Laboratories)was quantified by using a fluorescence plate reader. […] Viability of the remaining neurons was assessed by morphological criteria. […] Survival values were expressed as percentages of the initial number of neurons present before experimental treatment. […]
FIG. 13. […] Neuronal survival was assessed 48 h after treatment. […]

For series [2], the system named is neuronal [Ca^2+]i in cultured hippocampal neurons. The series can be described thus: measurement of [Ca^2+]i, fura-2 imaging. The format is cell-based, rat. The settings on record: 50 μM glutamate.
Series [3] has as its system cultured hippocampal neurons. The class given is cell-based, rat. The text has this:
(§1) Dissociated embryonic rat hippocampal cell cultures were established and maintained. All procedures conformed with the NIH Guide for the Care and Use of Laboratory Animals and were approved by the University of Kentucky Animal Care and Use Committee. Cultures were maintained on a polyethyleneimine-coated substrate in plastic 35-mm dishes or 96 wall plates (for cell survival studies) or glass-bottom 35-mm dishes (for [Ca^2+ ]i imaging studies). The cell density was ^~ 70-100 cells/mm^2. Cells were maintained in Eagle's minimum essential medium supplemented 10% with fetal bovine serum and containing 20 mM sodium pyruvate. […] Aβ25-35 (Bachem, lot ZJ744) and Aβ1-40 (Bachem, lot ZK600) were stored in the lyophilized form, and stocks were prepared immediately before use by dissolving the peptide at a concentration of 1 mM in sterile distilled water. […] Glutamate and colchicine (Sigma) were prepared as 200-500x stocks in saline. Cytochalasins D and E (Sigma) and calcium ionophore 4-bromo-A23187 (Calbiochem) were prepared as 500x stocks in dimethyl sulfoxide. Vitamin E (α-tocopherol; Sigma) was prepared as a 500x stock in ethanol. Nordihydroguaiaretic acid and FeSo4 were prepared as 500x stocks in sterile water.
(§2) Neuronal survival was quantified by counting viable neurons in the same microscope fields (10x objective) immediately before experimental treatment and at time points after treatment. In addition, cells were grown in 96-well plates and Alamar blue fluorescence (Alamar Laboratories)was quantified by using a fluorescence plate reader. Alamar Blue is a non-fluorescent substrate that, after reduction by cell metabolites, becomes fluorescent. Usually neurons that died in the time intervals (20-48 h) between examination points were absent. Viability of the remaining neurons was assessed by morphological criteria. Neutrons with intact neurites of uniform diameter and a soma with a smooth, round appearance were considered viable, whereas neurons with fragmented neurites and a vacuolated or swollen soma were considered nonviable. Survival values were expressed as percentages of the initial number of neurons present before experimental treatment. Statistical comparisons were made using ANOVA and Scheffe post-hoc tests for pairwise comparisons.
FIG. 12. (A) Cultures were pretreated for 1 h with vehicle 0.2% dimethyl sulfoxide (Control) or 100 nM cytochalasin D (CyD) and were exposed to the indicated concentrations of Aβ25-35 for 48 h. Data are mean and SEM values of determinations made in four separate cultures.
(B) Cultures were pretreated for 1 h with the indicated concentrations of cytochalasin D and then exposed to 50 μM Aβ25-35; parallel cultures were exposed to cytochalasin D alone (Control) . Data are mean and SEM values of determinations made in four separate cultures.
FIG. 14. Cultures were exposed to 100 nM colchicine; 50 μM Aβ; 100 nM colchicine plus 50 μM Aβ; 100 nM cytochalasin E (CyE) plus Aβ (colchicine and cytochalasin E were added 1 h before Aβ); neuronal survival was assessed 48 h later. Data are mean and SEM values of determinations made in four separate cultures. *p<0.01, compared with values for control or colchicine alone. **p<0.01, compared with value for cultures exposed to Aβ alone.

The subject of series [4] is cultured hippocampal neurons. Description: cells. The format is cell-based, rat.
Description: as §1, §2
Values represent the means and SEM of 4 separate cultures (cell counts) or 4 culture wells (Alamar blue assay). ^a p<0.05 compared to control value. ^b p<0.001 compound to control value. ^c p<0.01 compared to value for glutamate-treated cultures. ^d p<0.005 compared to value for glutamate-treated cultures. ^e p<0.001 compared to value for Aβ-treated cultures. ^f p<0.001 compared to value for cultures treated with 20 μM glutamate. ^g p<0.001 compared to cultures treated with 50 μM Aβ+20 μM glutamate. n.d. not determined.

Series [5] is described as follows: aggregation of peptides in culture medium. The class given is physicochemical.
Description: as §1

Series [6] concerns neuronal [Ca^2+]i in cultured hippocampal neurons. The series can be described thus: measurement of [Ca^2+]i, fura-2 imaging. The class given is cell-based, rat. To be noted: 50 μM Aβ.
Description: as §1
Fluorescence ratio imaging of the Ca^2+ indicator dye fura-2 was used to quantify [Ca^2+ ]i in neuronal somata. Cells were incubated for 30-40 min in the presence of 2 μM acetoxymethyl ester form of the [Ca^2+ ]i indicator dye fura-2 and were then washed twice (2 ml/wash) with fresh medium and allowed to incubate at least 40 min before imaging. Immediately before imaging, the normal culture medium was replaced with Hanks' balanced saline solution (GIBCO) containing 10 mM HEPES buffer and 10 mM of glucose. Cells were imaged using a Zeiss Attofluor system with a oil objective or Quantex system with a 40x oil objective. The ratio of the fluorescence emission using two different excitation wavelengths (334 and 380 nm) was used to determine [Ca^2+ ]i. The system was calibrated using solutions containing either no Ca^2+ or a saturating level of Ca^2+ (1 mM) according to the following formula: [Ca^2+ ]i =KD [(R-Rmin) / (Rmax -R)] (F0 /FS). Values represent the average [Ca^2+ ]i in the neuronal cell body. Experimental treatments were added to the bathing medium by dilution from 100-500x stocks.
(A) Cultures were pretreated for 1 hr with 100 nM cytochalasin D and then [Ca^2+ ]i in neurons was monitored prior to and following exposure to 50 μM glutamate. The records represent the mean [Ca^2+ ]i in 8-12 neurons. Similar results were obtained in 4 separate experiments.
(B) Aβ-induced potentiation of [Ca^2+ ]i response to glutamate is abrogated by cytochalasin D. Cultures were left untreated (Control) or were exposed to 20 μM Aβ25-35 for 6 hr or cytochalasin D plus Aβ25-35 for 6 hr. The [Ca^2+ ]i was then monitored prior to following exposure to 50 μM glutamate. Values represent the means of 8-14 neurons. Similar results were obtained in 3 separate experiments.
(C) Cultures were pretreated for 3 hr with 50 μM Aβ alone or in combination with 100 nM cytochalasin D. The [Ca^2+ ]i in neurons was then monitored prior to and following exposure to 50 mM KCl. Values represent the mean of 14-23 neurons. Similar results were obtained in a separate experiment.
(D) Cultures were pretreated for 1 h with 100 nM cytochalasin D. The [Ca^2+ ]i in neurons was measured immediately prior to, and at 5 min following, exposure to the indicated concentrations of glutamate. Values represent the means and SEM of determinations made in 17-26 neurons. *P<0.05 (10 μM glutamate), P<0.02 (50 μM glutamate), P<0.01 (100 μAM glutamate) compared to corresponding control values.
FIG. 9. Cultures were pretreated for 3 h with vehicle (control) or 10 μM jasplakinolide. The [Ca^2+ ]i was monitored prior to and following exposure to 50 μM glutamate. Values represent the mean of determinations made in 10-12 neurons. Similar results were obtained in two additional experiments.
FIG. 10. […]

Results on 1 substance are retold here after patent US5830910A (priority 1995, dated 1998).

For the substance “Aβ25-35: Aβ25-35 (Bachem, lot ZJ744), amyloid β-peptide fragment (GSNKGAIIGLM; Amyloid-beta protein 42; UniProt P05067 696-706, looked up, fragment) [reference compound]”, in series [1], the “neuronal death on combined exposure to Aβ and glutamate” value is given as “significantly more neuronal death”. In addition, the “[Ca^2+]i reached after glutamate in Aβ-pretreated cultures” value in series [2] (Aβ pretreatment 3 h) is > 1,500 nM; in series [2] (Aβ pretreatment 3 hr), “over 1 μM”. Further, the “neuronal survival in cultures exposed to Aβ25-35” value in series [3] (50 μM, 24 hr) is recorded as “less than 50 % of control values”. Besides, the “neuronal survival upon exposure to Aβ25-35” value in series [3] (24-h incubation) is on record as “concentration-dependent reduction in neuronal survival”. In addition, in series [3] (48-h period, added in soluble form), the “neurotoxicity, preliminary characterization” value was “progressively killed neurons”. The “Neuron Survival (% of control), Alamar Blue Assay” value is given as 24 ± 0.8 % of control in series [4] (50 μM Aβ + 20 μM Glutamate) and 47 ± 3.5 % of control in series [4] (50 μM, alone). Moreover, in series [5], the “aggregation in culture medium” value was “aggregated rapidly”. In addition, the “rest [Ca^2+]i” value in series [6] (3 h) is reported as ~ 280 nM; in series [6] (6 h), ~ 440 nM.
